Data published in ChEMBL document CHEMBL1130376, “Effects of taxoids from Taxus cuspidata on microtubule depolymerization and vincristine accumulation in MDR cells” (Bioorg Med Chem Lett, 1997).
In brackets after ≈: the same amount, converted by molar mass.

Columns and labels:
[1] = Vincristine (VCR) accumulation in multidrug resistant human ovarian cancer 2780 AD cells at a concentration 10 ug/mL; format: functional
[2] = system: L1210; test: Cytotoxicity against murine leukemia L1210 cells; format: functional, cell-based, Mus musculus; details: Mus musculus, L1210; read-out: IC50
[3] = Cytotoxicity against human epidermoid carcinoma KB cells; format: functional, cell-based
[4] = Vincristine (VCR) accumulation in multidrug resistant human ovarian cancer 2780 AD cells at a concentration 1 ug/mL; format: functional
[5] = target: Tubulin alpha chain (Sus scrofa) (UniProt P02550); test: Tested for inhibitory concentration against […]-induced depolymerization of microtubules; format: functional
Chain of Tubulin alpha chain (Sus scrofa) (P02550 whole entry, looked up): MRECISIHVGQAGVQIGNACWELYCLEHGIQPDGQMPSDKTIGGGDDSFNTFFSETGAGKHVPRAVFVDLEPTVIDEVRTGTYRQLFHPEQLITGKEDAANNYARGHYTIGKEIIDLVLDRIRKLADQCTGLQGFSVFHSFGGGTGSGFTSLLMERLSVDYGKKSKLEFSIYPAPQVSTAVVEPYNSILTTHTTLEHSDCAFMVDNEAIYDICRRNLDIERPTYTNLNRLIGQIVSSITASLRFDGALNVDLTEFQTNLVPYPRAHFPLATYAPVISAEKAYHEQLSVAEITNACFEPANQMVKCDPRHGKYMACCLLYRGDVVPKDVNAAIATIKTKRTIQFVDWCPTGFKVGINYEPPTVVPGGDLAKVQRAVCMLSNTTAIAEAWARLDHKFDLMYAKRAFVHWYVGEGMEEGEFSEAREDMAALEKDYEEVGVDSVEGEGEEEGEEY

Concentration [5] [µM] | Compound | vincristine accumulation (% of control) [1] [%] | IC50 [2] [µg/mL] | IC50 [3] [µg/mL] | vincristine accumulation (% of control) [4] [%]
 | CC(=O)O[C@@]12CO[C@@H]1C[C@@H](O)[C@@]1(C)C(=O)[C@H](O)C3=C(C)[C@@H](OC(=O)[C@H](O)C(NC(=O)c4ccccc4)c4ccccc4)C[C@@](O)([C@@H](OC(=O)c4ccccc4)[C@H]21)C3(C)C (stereo not given in full) | 218 | 0.71 (≈ 0.875 µM) | 0.013 (≈ 0.016 µM) | 192
10 | CC(=O)O[C@H]1C(=O)[C@@]2(C)[C@H]([C@H](OC(=O)c3ccccc3)[C@]3(O)C[C@H](OC(=O)[C@H](O)[C@@H](NC(=O)c4ccccc4)c4ccccc4)C(C)=C1C3(C)C)[C@]1(OC(C)=O)CO[C@@H]1C[C@@H]2O |  |  |  | 
 | C=C1[C@@H](O)C[C@H](OC(C)=O)[C@@]2(COC(=O)c3ccccc3)[C@@H](OC(C)=O)[C@H](OC(C)=O)[C@]3(O)[C@@]4(C)CO[C@]3(C)C(=O)C[C@H]4[C@@H](OC(C)=O)[C@H]12 [TAXININ M] | 169 | > 10 | 9.4 (≈ 13.7 µM) | 115
 | CC(=O)O[C@H]1C[C@H]2OC[C@@]2(OC(C)=O)[C@H]2[C@H](OC(C)=O)[C@]3(C(C)(C)O)C[C@H](OC(=O)/C=C/c4ccccc4)C(C)=C3[C@@H](OC(=O)c3ccccc3)[C@H](OC(C)=O)[C@]12C [TAXCHININ B] | 639 | 3.8 (≈ 4.73 µM) | > 10 | 219
 | C=C1[C@@H](OC(=O)/C=C/c2ccccc2)C[C@H](OC(C)=O)[C@@]2(C)[C@@H](OC(C)=O)[C@H](OC(C)=O)[C@@]3(O)C(C)=C(OC(C)=O)C[C@@H]([C@@H](OC(C)=O)[C@H]12)C3(C)C | 325 | 3 (≈ 4.14 µM) | 1.8 (≈ 2.48 µM) | 133
 | C=C1[C@@H](O)C[C@H](OC(C)=O)[C@@]2(C)[C@@H](OC(C)=O)[C@H](OC(C)=O)C3=C(C)C(=O)C[C@@H]([C@@H](OC(C)=O)[C@H]12)C3(C)C | 257 | > 10 | > 10 | 141
 | CC(=O)O[C@H]1C[C@@]2(O)[C@H]3OC[C@]4(OC(C)=O)[C@H](O)C[C@H](OC(C)=O)[C@](C)([C@H]34)[C@@H](OC(C)=O)[C@H](OC(C)=O)C(=C1C)C2(C)C | 234 | 4.5 (≈ 7.37 µM) | 8.8 (≈ 14.4 µM) | 167
 | C=C1[C@@H](OC(=O)/C=C/c2ccccc2)CC[C@@]2(C)[C@@H](OC(C)=O)[C@H](OC(C)=O)C3=C(C)C(=O)C[C@@H]([C@@H](OC(C)=O)[C@H]12)C3(C)C | 571 | > 10 | > 10 | 195
 | C=C1[C@@H](O)C[C@H](OC(C)=O)[C@@]2(C)[C@@H](OC(C)=O)[C@H](OC(C)=O)C3=C(C)[C@@H](OC(C)=O)C[C@@H]([C@@H](O)[C@H]12)C3(C)C | 439 | 10 (≈ 18.6 µM) | 7.4 (≈ 13.8 µM) | 205
 | CC(=O)OC[C@H]1[C@H]2[C@H](O)[C@]3(O)C[C@H](OC(C)=O)C(C)=C([C@@H](OC(C)=O)[C@H](OC(C)=O)[C@]2(C)[C@@H](OC(C)=O)C[C@@H]1OC(C)=O)C3(C)C | 208 | 4.6 (≈ 7.03 µM) | > 10 | 147
 | C=C1[C@@H](OC(=O)CC(c2ccccc2)N(C)C)C[C@H](OC(C)=O)[C@@]2(C)[C@@H](OC(C)=O)[C@H](OC(C)=O)[C@@]3(O)C(C)=C(OC(C)=O)C[C@@H]([C@@H](OC(C)=O)[C@H]12)C3(C)C (stereo not given in full) | 358 | 2.5 (≈ 3.25 µM) | 2.6 (≈ 3.38 µM) | 133
 | C=C1[C@@H](OC(=O)CC(c2ccccc2)N(C)C)CC[C@@]2(C)[C@@H](OC(C)=O)[C@H](OC(C)=O)C3=C(C)C(=O)C[C@@H]([C@@H](OC(C)=O)[C@H]12)C3(C)C (stereo not given in full) | 704 | > 10 | > 10 | 177
 | C=C1[C@@H](O)C[C@H](O)[C@@]2(C)[C@@H](OC(C)=O)[C@H](OC(C)=O)C3=C(C)C(=O)C[C@@]3(C(C)(C)O)[C@@H](OC(C)=O)[C@H]12 | 191 | > 10 | > 10 | 151
 | C=C1[C@@H](OC(=O)/C=C/c2ccccc2)CC[C@@]2(C)[C@@H](OC(C)=O)[C@H](OC(C)=O)C3=C(C)C(=O)C[C@@](O)([C@@H](OC(C)=O)[C@H]12)C3(C)C | 436 | 4.6 (≈ 7.39 µM) | 6.9 (≈ 11.1 µM) | 167
 | C=C1[C@@H](O)CC[C@@]2(C)[C@@H](OC(C)=O)[C@H](OC(C)=O)C3=C(C)C(=O)C[C@@](O)([C@@H](OC(C)=O)[C@H]12)C3(C)C | 216 | 6.2 (≈ 12.6 µM) | 0.6 (≈ 1.22 µM) | 152
 | CC(=O)O[C@H]1C[C@H]2OC[C@@]2(OC(C)=O)[C@H]2[C@H](OC(C)=O)[C@]3(C(C)(C)O)C[C@H](O)C(C)=C3[C@@H](OC(=O)c3ccccc3)[C@H](OC(C)=O)[C@]12C | 240 | > 10 | > 10 | 171
 | CC(=O)O[C@@]12CO[C@H]1C[C@H](O)[C@@]1(C)C(=O)[C@H](O)C3=C(C)[C@@H](O)C[C@@](O)([C@@H](OC(=O)c4ccccc4)[C@H]21)C3(C)C | 271 | > 10 | > 10 | 153
 | C=C1[C@@H](OC(=O)/C=C/c2ccccc2)CC[C@]2(C)[C@@H]1C[C@@H]1C[C@H](OC(C)=O)C(C)=C([C@@H](OC(C)=O)[C@@H]2OC(C)=O)C1(C)C | 517 | 9.5 (≈ 16 µM) | 8.2 (≈ 13.8 µM) | 102
 | C=C1[C@@H](OC(=O)/C=C/c2ccccc2)C[C@H](OC(C)=O)[C@]2(C)[C@@H]1C[C@]1(C(C)(C)O)C[C@H](OC(C)=O)C(C)=C1[C@@H](OC(=O)c1ccccc1)[C@@H]2OC(C)=O [TAXUSPINE A] | 246 | 4.2 (≈ 5.76 µM) | > 10 | 142
 | C=C1[C@@H](OC(=O)/C=C/c2ccccc2)C[C@H](OC(C)=O)[C@]2(C)[C@@H]1C[C@@H]1C[C@H](OC(C)=O)C(C)=C([C@@H](OC(C)=O)[C@@H]2OC(C)=O)C1(C)C | 798 | 4.9 (≈ 7.53 µM) | > 10 | 266
 | C=C1[C@@H](O)C[C@H](OC(C)=O)[C@@]2(C)[C@@H](OC(C)=O)[C@H](OC(=O)c3ccccc3)C3=C(C)[C@@H](O)C[C@@]3(C(C)(C)O)[C@@H](OC(C)=O)[C@H]12 [TAXCHININ A] | 192 | > 10 | 0.4 (≈ 0.651 µM) | 143
 | C=C1[C@@H](OC(=O)/C=C/c2ccccc2)CC[C@@]2(C)[C@@H](OC(C)=O)[C@H](OC(C)=O)[C@@]34[C@H](C)C(=O)C[C@@H]([C@@H](OC(C)=O)C132)C4(C)C (stereo not given in full) | 768 | 5.8 (≈ 9.56 µM) | > 10 | 246
 | CC(=O)O[C@@H]1C2=C(C)[C@@H](O)C[C@@]2(C(C)(C)O)[C@@H](OC(C)=O)[C@@H]2[C@]3(OC(C)=O)CO[C@@H]3C[C@H](OC(C)=O)[C@@]2(C)[C@H]1OC(C)=O | 235 | > 10 | > 10 | 147
 | CC(=O)O[C@H]1C(=O)[C@@]2(C)[C@H]([C@H](OC(=O)c3ccccc3)[C@]3(O)C[C@H](OC(=O)[C@H](O)C(NC(=O)C4CCC4)c4ccccc4)C(C)=C1C3(C)C)[C@]1(OC(C)=O)CO[C@@H]1C[C@@H]2O (stereo not given in full) | 93 | 0.25 (≈ 0.301 µM) | 0.086 (≈ 0.103 µM) | 88
 | CC(=O)O[C@H]1C[C@H]2[C@@H](OC(C)=O)/C=C3\C[C@](C)(C(=O)[C@H](O)C(=C1C)C2(C)C)[C@@H](OC(C)=O)C[C@@H]3OC(=O)/C=C/c1ccccc1 [TAXUSPINE B] | 713 | > 10 | > 10 | 219
 | CC(=O)O[C@H]1C[C@H]2[C@@H](OC(C)=O)/C=C3\C[C@](C)(C(=O)[C@H](O)C(=C1C)C2(C)C)[C@@H](OC(C)=O)C[C@@H]3OC(=O)C(O)C(c1ccccc1)N(C)C (stereo not given in full) | 298 | 7.1 (≈ 10.4 µM) | > 10 | 119
 | C=C1[C@@H](OC(=O)/C=C/c2ccccc2)C[C@H](OC(C)=O)[C@@]2(COC(C)=O)[C@@H](OC(C)=O)[C@H](O)[C@]3(O)[C@@]4(C)CO[C@]3(C)C(=O)C[C@H]4[C@@H](OC(C)=O)[C@H]12 [TAXUSPINE T] | 308 | 1 (≈ 1.4 µM) | 0.06 (≈ 0.0842 µM) | 196
